Source: publication PMC8122671, “New Succinimides with Potent Anticancer Activity: Synthesis, Activation of Stress Signaling Pathways and Characterization of Apoptosis in Leukemia and Cervical Cancer Cells” (International Journal of Molecular Sciences, 2021)
Where a name gives a salt, the structure may show the parent alone. Read-outs that look alike come from different tables or passages of the source.

Key:
[1] = system: HUVEC (normal endothelial) cells; test: MTT cytotoxicity assay, HUVEC; assay type: cell-based; conditions: Homo sapiens, read-out: IC50 HUVEC
Experimental: (§1) The cytotoxicity of new derivatives of dicarboximides was tested in HeLa (cervix carcinoma cell line), K562 (myelogenous leukemia cell line), MOLT-4 (Human T-Lymphoid Cell Line), and HUVEC (normal endothelial) cells. First, the viability of cells was determined after 48 h incubation with the screened compounds used at the concentration of 100 μM (data not shown). […] Cells exposed to 1% DMSO (as vehicle) served as the control with 100% survival.
(§2) Human umbilical vein endothelial cells (Life Technologies, Carlsbad, CA, USA) were cultured (according to the manufacturer’s instructions) in Medium 200 containing low serum growth supplement; 1 × 10^4 cells were seeded on each well on a 96-well plate (Nunc, Roskilde, Denmark). The HeLa (human cervix carcinoma), K562, and MOLT-4 (leukemia) cells were cultured in RPMI 1640 medium supplemented with antibiotics and 10% fetal calf serum in a 5% CO2–95% air atmosphere; 7 × 10^3 cells were seeded on each well on a 96-well plate (Nunc). Twenty-four hours later, cells were exposed to the test compounds for additional 48 hours. Stock solutions of test compounds were freshly prepared in DMSO. The final concentrations of the compounds tested in the cell cultures were 2 × 10^−1, 1 × 10^−1, 5 × 10^−2, 1 × 10^−2, 1 × 10^−3, and 1 × 10^−4 mM. The concentration of DMSO in the cell culture medium was 1%. The values of IC50 (the concentration of test compound required to reduce the cell survival fraction to 50% of the control) were calculated from dose–response curves and used as a measure of cellular sensitivity to a given treatment. The cytotoxicity of all compounds was determined by the MTT [3-(4,5-dimethylthiazol-2-yl)-2,5-diphenyltetrazolium bromide; Sigma, St. Louis, MO, USA] assay. Briefly, after 24 or 48 h of incubation with drugs, the cells were treated with the MTT reagent, and incubation was continued for 2 h. MTT-formazan crystals were dissolved in 20% SDS and 50% DMF at pH 4.7, and absorbance was read at 570 and 650 nm on a microplate reader FLUOstar Omega (BMG Labtech, Offenburg, Germany). As a control (100% viability), we used cells grown in the presence of the vehicle (1% DMSO) only.

[2] = system: MOLT-4 (Human T-Lymphoid Cell Line); test: MTT cytotoxicity assay, MOLT-4; assay type: cell-based; conditions: read-out: IC50 MOLT-4
Experimental: as §1, §2

[3] = system: K562 (myelogenous leukemia cell line); test: MTT cytotoxicity assay, K562; assay type: cell-based, human; conditions: Homo sapiens, K562, 48 h, 48 h incubation; average (SD) of three experiments; read-out: IC50 K562
Experimental: as §1, §2

[4] = system: HeLa (human cervix carcinoma) cells; test: MTT cytotoxicity assay, HeLa; assay type: cell-based; conditions: 48 h incubation, average (SD) of three experiments, read-out: IC50 HeLa
Experimental: as §1, §2

[5] = Lipophilicity (logkw) by reversed-phase chromatography (RP-HPLC); assay type: physicochemical; conditions: for logkw (Experimental): extrapolated to pure water; for logkw (Table S2): intercept of logk vs methanol fraction, n = 4
From the text: The main goal of the synthetic part was the synthesis of new derivatives of dicarboximides with decreased lipophilicity in comparison to the lead compounds, i.e., Ia–Ie and II. To reduce the lipophilicity of the new dicarboximides, a hydroxyalkyl chain connected with an aliphatic amine was introduced to the imides (Scheme 1). At the same time, the imide scaffold in derivatives from group 2 and 3 was the same as in lead compounds Ia–Ie and II, respectively (Figure 1). The structure of the imide was changed in derivatives 1b–1g. The lipophilicity of new derivatives was calculated using the Osiris Property Explorer program. For some compounds, lipophilicity was determined experimentally by a reversed-phase chromatography (detailed description is given in Materials and Methods and in the Supplementary Data, Table S2). Table 1 summarizes the calculated (clogP) and experimental (logkw) parameters of the lipophilicity of new derivatives.
The reversed-phase high-performance liquid chromatography (RP-HPLC) analysis was performed on a Merck–Hitachi LaChrom Elite System (Merck, Darmstadt, Germany) with diode array detector L-2455, thermostat L-2300, pump L-2130, and autosampler L-2200 and with the Waters XTerra MS RP-18 (3.5 μm, 150 × 4.6 mm) chromatographic column (Waters, Milford, MA, USA) as the stationary phase. The mobile phase consisted of methanol, water, and 0.1% (v/v) formic acid and was degassed by the use of the built-in membrane degasser. The methanol gradient grade for HPLC was purchased from Merck (Merck, Darmstadt, Germany) and formic acid from Polish Reagents (Polish Reagents, Gliwice, Poland); double-distilled water was used. Then, 5 μL of methanolic solutions (0.1%; m/v) of selected samples were applied to the chromatographic column by the use of an autosampler Hitachi L-2200 (LaChrom Elite, Hitachi-Merck, Darmstadt, Germany). The analysis was performed with the flow rate of 0.7 mL min^−1 in isocratic mode using various concentrations of organic modifier (methanol) in binary polar mobile phases; percentages of methanol in water were 45–70% (%, v/v) and changed by 5% per step. Chromatograms were detected at 254 nm and the temperature of the column was 25 °C. All experiments were repeated in triplicate, and the final results were taken to be the arithmetic means. Dead time was measured by the use of uracil (Calbiochem. Merck, Darmstadt, Germany). Statistical and regression analyses were performed using Statistica (ver. 13.3 for Windows). The chromatographic lipophilicity parameters ( logkW ) for selected samples were obtained by the extrapolation of the retention parameter logk to pure water, according to Equation (1):(1) logk=logkw−S·ϕ; where logkW is the value of the retention factor of a substance in pure water, S is the slope of the regression curve, and ϕ is the concentration of the organic modifier. The values of logk were calculated based on the raw HPLC data using the formula (2):(2) logk=logtR−t0/t0; where tR is the retention time and t0 is the dead retention time (determined for uracil).
The chromatographic lipophilicity parameters (logkௐ ) for selected samples were ob‐ tained by the extrapolation of the retention parame te r logk to pure water, according to […]
where logkௐ is the value of the retention factor of a substance in pure water, S is the slope of the regression curve, and φ is the concentration of the organic modifier. The values of logk were ca lcula ted based on the raw HPLC data using the formula: […]
logk ൌ log ሺ௧ೃ ି ௧బ௧బ ሻ (2) where tோ is the retention time and t଴ is the dead retention time (determined for ura‐ cil). The goodness of fit of the equation (1) to the experimental data was classified accord‐ ing to Jaffe (Jaffe, H. H. A Reexamination of the Hammet Equation. Chem. Rev. 1953, 53, In our RP‐HPLC experiments, the goodness of fit of the equation to the experi‐ mental data are excellent in most ca ses (r > 0.99). The F statistic val ues are, in all cases, […]

[6] = 48 h incubation, average (SD) of three experiments
[7] = MOLT-4, 48 h incubation, average (SD) of three experiments

Row | SMILES | melting point | IC50 [1, 6] | IC50 [2, 7] | IC50 [3] | IC50 [4] | other results
1 | CC12C(=O)C(C)(C(c3ccccc3)=C1c1ccccc1)C1C(=O)N(CC(O)CN3CCCCC3)C(=O)C12 (stereo not shown) (as salt: HCl) [1f, 4-[2-hydroxy-3-(piperidin-1-yl)propyl]-1,7-dimethyl-8,9-diphenyl-4-azatricyclo[5.2.1.0^2,6]dec-8-ene-3,5,10-trione] | 170 to 171 °C | – | – | – | – | –
2 | CC12C(=O)C(C)(C(c3ccccc3)=C1c1ccccc1)C1C(=O)N(CCN3CCOCC3)C(=O)C12 (stereo not shown) (as salt: HCl) [1j, 4-[2-(morpholin-4-yl)ethy]-1,7-dimethyl-8,9-diphenyl-4-azatricyclo[5.2.1.0^2,6]dec-8-ene-3,5,10-trione] | 227 to 228 °C | – | – | – | – | –
3 | CC12C(=O)C(C)(C(c3ccccc3)=C1c1ccccc1)C1C(=O)N(CCO)C(=O)C12 (stereo not shown) [compound 4, 4-(2-hydroxyethyl)-1,7-dimethyl-8,9-diphenyl-4-azatricyclo[5.2.1.0^2,6]dec-8-ene-3,5,10-trione] | 186 to 187 °C | 56 µM | 71 µM | 105 µM | 61 µM | –
4 | CC(C)(C)NCC(O)CN1C(=O)C2C(C1=O)C1(C)C(=O)C2(C)C(c2ccccc2)=C1c1ccccc1 (stereo not shown) [1c, 4-[3-(tert-butylamino)-2-hydroxypropyl]-1,7-dimethyl-8,9-diphenyl-4-azatricyclo [5.2.1.0^2,6]dec-8-ene-3,5,10-trione] | – | 23 µM | 28 µM | 28 µM | 26 µM | logkw (Experimental) [5]: 4.91; logkw (Table S2) [5]: 4.9077
5 | O=C1C2C(C(=O)N1CC(O)CN1CCOCC1)C1(c3ccccc3)CC2(c2ccccc2)C(c2ccccc2)=C1c1ccccc1 (stereo not shown) [3g, 4-[-2-hydroxy-3-(morpholin-4-yl)propyl]-1,7,8,9-tetraphenyl-4-azatricyclo[5.2.1.0^2,6]dec-8-ene-3,5-dione] | – | 17 µM | 5.2 µM | 31 µM | 120 µM | logkw (Experimental) [5]: 6.28; logkw (Table S2) [5]: 6.2759
6 | CCCCN(CCCC)CC(O)CN1C(=O)C2C(C1=O)C1(C)C(=O)C2(C)C(c2ccccc2)=C1c1ccccc1 (stereo not shown) (as salt: HCl) [1e, 4-[3-(dibutylamino)-2-hydroxypropyl]-1,7-dimethyl-8,9-diphenyl-4-azatricyclo [5.2.1.0^2,6]dec-8-ene-3,5,10-trione] | 192 to 196 °C | – | – | – | – | –
7 | CCNCC(O)CN1C(=O)C2C(C1=O)C1(C)C(=O)C2(C)C(c2ccccc2)=C1c1ccccc1 (stereo not shown) [1b, 4-[3-(ethylamino)-2-hydroxypropyl]-1,7-dimethyl-8,9-diphenyl-4-azatricyclo [5.2.1.0^2,6]dec-8-ene-3,5,10-trione] | – | 20 µM | 7 µM | 32 µM | 30 µM | logkw (Experimental) [5]: 4.78; logkw (Table S2) [5]: 4.7844
8 | CC12C(=O)C(C)(C(c3ccccc3)=C1c1ccccc1)C1C(=O)N(CCN3CCCCC3)C(=O)C12 (stereo not shown) (as salt: HCl) [1i, 4-[2-(piperidin-1-yl)ethy]-1,7-dimethyl-8,9-diphenyl-4-azatricyclo[5.2.1.0^2,6]dec-8-ene-3,5,10-trione] | 214 to 216 °C | – | – | – | – | –
9 | CCC12C(=O)C(CC)(C(c3ccccc3)=C1c1ccccc1)C1C(=O)N(CC(O)CN3CCOCC3)C(=O)C12 (stereo not shown) [2g, 4-[-2-hydroxy-3-(morpholin-4-yl)propyl]-1,7-diethyl-8,9-diphenyl-4-azatricyclo[5.2.1.0^2,6]dec-8-ene-3,5,10-trione] | – | 17 µM | 18 µM | 20 µM | 23 µM | logkw (Experimental) [5]: 4.98; logkw (Table S2) [5]: 4.9763
10 | CC12C(=O)C(C)(C(c3ccccc3)=C1c1ccccc1)C1C(=O)N(CCCl)C(=O)C12 (stereo not shown) [1h, 4-(2-chloroethyl)-1,7-dimethyl-8,9-diphenyl-4-azatricyclo[5.2.1.0^2,6]dec-8-ene-3,5,10-trione] | 190 to 191 °C | – | – | – | – | IC50 ([1]; 48 h): 64 µM; IC50 ([2]; MOLT-4, 48 h): 20 µM

Now from value to molecule, other results behind:

Row | melting point | SMILES | IC50 [1, 6] | IC50 [2, 7] | IC50 [3] | IC50 [4] | other results
11 | 92 to 110 °C | CCCCN(CCCC)CC(O)CN1C(=O)C2C(C1=O)C1(CC)C(=O)C2(CC)C(c2ccccc2)=C1c1ccccc1 (stereo not shown) (as salt: HCl) [2e, 4-[3-(dibutylamino)-2-hydroxypropyl]-1,7-diethyl-8,9-diphenyl-4-azatricyclo[5.2.1.0^2,6]dec-8-ene-3,5,10-trione] | – | – | – | – | –
12 | 190 to 195 °C | CCC12C(=O)C(CC)(C(c3ccccc3)=C1c1ccccc1)C1C(=O)N(CC(O)CN3CCCCC3)C(=O)C12 (stereo not shown) (as salt: HCl) [2f, 4-[2-hydroxy-3-(piperidin-1-yl)propyl]-1,7-diethyl-8,9-diphenyl-4-azatricyclo[5.2.1.0^2,6]dec-8-ene-3,5,10-trione] | – | – | – | – | –
13 | 237 to 238 °C | CCCCN(CCCC)CC(O)CN1C(=O)C2C(C1=O)C1(c3ccccc3)CC2(c2ccccc2)C(c2ccccc2)=C1c1ccccc1 (stereo not shown) (as salt: HCl) [3e, 4-[3-(dibutylamino)-2-hydroxypropyl]-1,7,8,9-tetraphenyl-4-azatricyclo[5.2.1.0^2,6]dec-8-ene-3,5-dione] | – | – | – | – | –
14 | 268 to 270 °C | O=C1C2C(C(=O)N1CC(O)CN1CCCCC1)C1(c3ccccc3)CC2(c2ccccc2)C(c2ccccc2)=C1c1ccccc1 (stereo not shown) (as salt: HCl) [3f, 4-[2-hydroxy-3-(piperidin-1-yl)propyl]-1,7,8,9-tetraphenyl-4-azatricyclo[5.2.1.0^2,6]dec-8-ene-3,5-dione] | – | – | – | – | –
